The target in the test is T1, NIK (Homo sapiens, UniProt Q99558).
T1 construct: gene MAP3K14
As to the kind of experiment: Kinase-Glo luminescence kinase assay with recombinant human active NIK, myelin basic protein and […] ATP; IC50 converted to Ki. It counts as biochemical. For orientation: In Kinase-Glo more light means more ATP remaining.

SMILES strings stand for the structures. pKi: −log10 of the molar value.

T1 sequence (Q99558 whole entry): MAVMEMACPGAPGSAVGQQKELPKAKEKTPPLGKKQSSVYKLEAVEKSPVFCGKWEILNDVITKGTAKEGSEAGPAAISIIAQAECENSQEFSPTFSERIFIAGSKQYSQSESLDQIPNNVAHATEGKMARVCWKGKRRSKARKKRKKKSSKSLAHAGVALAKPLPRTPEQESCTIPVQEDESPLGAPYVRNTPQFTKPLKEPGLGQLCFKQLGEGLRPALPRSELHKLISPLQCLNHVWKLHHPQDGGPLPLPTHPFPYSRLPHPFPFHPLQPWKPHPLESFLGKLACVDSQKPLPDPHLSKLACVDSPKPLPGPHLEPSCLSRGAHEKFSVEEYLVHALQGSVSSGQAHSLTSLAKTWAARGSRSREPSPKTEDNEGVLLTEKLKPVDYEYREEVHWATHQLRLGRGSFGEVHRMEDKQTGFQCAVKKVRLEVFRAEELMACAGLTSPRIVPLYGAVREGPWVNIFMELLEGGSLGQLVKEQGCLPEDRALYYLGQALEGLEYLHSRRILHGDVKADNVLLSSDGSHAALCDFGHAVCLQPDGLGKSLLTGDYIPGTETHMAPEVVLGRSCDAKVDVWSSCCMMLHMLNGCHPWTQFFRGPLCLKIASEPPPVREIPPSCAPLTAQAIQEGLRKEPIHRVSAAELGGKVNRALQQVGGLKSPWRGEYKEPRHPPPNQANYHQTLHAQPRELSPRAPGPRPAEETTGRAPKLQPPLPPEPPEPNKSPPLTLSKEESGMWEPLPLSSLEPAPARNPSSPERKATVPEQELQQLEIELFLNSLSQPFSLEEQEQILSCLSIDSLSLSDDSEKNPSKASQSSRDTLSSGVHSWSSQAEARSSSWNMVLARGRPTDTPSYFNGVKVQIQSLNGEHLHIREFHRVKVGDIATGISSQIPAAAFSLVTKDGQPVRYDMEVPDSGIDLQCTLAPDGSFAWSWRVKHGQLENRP

On to `CC(C)(O)C#Cc1ccc2c(c1)N(c1ccnc(N)n1)CC2` [CW15337, 4-(1-(2-aminopyrimidin-4-yl)indolin-6-yl)-2-methylbut-3-yn-2-ol], for which the pKi is 7.60.

The pKi is the Ki on a negative log10 scale, so that one unit is a factor of ten.
